Measured values reported in US11839212B2, “Synergistic pesticidal compositions and methods for delivery of insecticidal active ingredients” (0903608 B.C. Ltd., priority 2018, dated 2023).
Where two headings read alike, the source gives them in different places.

Legend:
Test in all cases: Synergistic Growth Inhibition Assay (MIC and FIC index, 96-well, resazurin)
Type in all cases: cell-based
Fusarium oxysporum = details: Fusarium oxysporum, Compound B alone
Summary of the method: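 Checkerboard dilutions of pesticidal active plus C6–C10 (or C11/C12) aliphatic acid in 96-well plates; growth scored by resazurin colour change, optionally visual.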

Botrytis cinerea = details: Botrytis cinerea, 48 h, Compound B alone, 48 hours incubation, read-out: MIC (B)
Summary of the method: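 Checkerboard microdilution of pesticidal active ingredient combined with C6–C10 (or C11/C12) aliphatic acid against Botrytis cinerea, with growth read by resazurin colour change plus visual check. FIC index = sum of each agent's concentration in the inhibiting well divided by its MIC alone; 1 denotes additivity.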

Sclerotinia sclerotiorum = details: Sclerotinia sclerotiorum, […], Compound B alone, read-out: MIC (B)
Summary of the method: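 Checkerboard of pesticidal active ingredient combined with C6–C10 (or C11/C12) aliphatic acids in serial dilutions against Sclerotinia sclerotiorum. Growth scored by resazurin colour change plus visual inspection; FIC index is the sum of each agent's concentration divided by its MIC alone, with 1 indicating additivity.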

Alternaria solani = details: Alternaria solani, […], Compound B alone, 7 days incubation, read-out: MIC (B)
Experimental: In some embodiments, the synergistic action between the pesticidal active ingredient, and the at least one C6-C10 (or alternatively C11 or C12) saturated or unsaturated aliphatic acid components of the pesticidal compositions according to embodiments of the present disclosure was tested using a Synergistic Growth Inhibition Assay, which is derived from and related to a checkerboard assay as is known in the art for testing of combinations of antimicrobial agents. In the Synergistic Growth Inhibition Assay used in accordance with some embodiments of the present disclosure, multiple dilutions of combinations of pesticidal active ingredient and at least one C6-C10 saturated or unsaturated aliphatic acid agents are tested in individual cells for inhibitory activity against a target pest or pathogenic organism. In one such embodiment, the combinations of pesticidal active ingredient and C6-C10 (or alternatively C11 or C12) saturated or unsaturated aliphatic acid agents may preferably be tested in decreasing concentrations. In a further such embodiment, the combinations of pesticidal active ingredient and C6-C10 (or alternatively C11 or C12) saturated or unsaturated aliphatic acid agents may be tested in increasing concentrations. These multiple combinations of the pesticidal active ingredient and at least one C6-C10 (or alternatively C11 or C12) saturated or unsaturated aliphatic acid agents may be prepared in 96-well microtiter plates. In one such embodiment, the Synergistic Growth Inhibition Assay then comprises rows which each contain progressively decreasing concentrations of the pesticidal active ingredient and one or more C6-C10 (or alternatively C11 or C12) saturated or unsaturated aliphatic acid agents to test for the MIC of the agents in combination at which growth of the target pest or pathogen is inhibited. Thus, each well of the microtiter plate is a unique combination of the two agents, at which inhibitory efficacy of the combination against the target pest or pathogen can be determined.
In one embodiment according to the present disclosure, for each row of microtiter cells in the Synergistic Growth Inhibition Assay, the FIC index is calculated from the lowest concentration of the pesticidal active ingredient and one or more C6-C10 saturated or unsaturated aliphatic acid agents necessary to inhibit growth of a target pest or pathogen. The FIC of each component is derived by dividing the concentration of the agent present in that well of the microtiter plate by the minimal inhibitory concentration (MIC) needed of that agent alone to inhibit growth of the target pest or pathogen. The FIC index is then the sum of these values for both agents in that well of the microtiter plate. […] Fractional inhibitory concentration indices may then used as measure of synergy. […] When the FIC index is equal to 1, the combination is additive.
Then, serial dilutions of these initial compositions in successive wells in the row of the microtiter plate were used to assay the pesticidal composition under the same conditions to determine the concentration of the composition combining the two agents corresponding to the microtiter well in which growth inhibition of the target pest or organism ceases.
A culture of the representative fungal pathogen, namely Fusarium oxysporum, Botrytis cinerea, or Sclerotinia sclerotiorum, for example, is grown to exponential phase in potato dextrose broth (PDB).

[1] = 48 h, Table 27, 48 hours incubation, read-out: MIC (B)
[2] = 48 h, Table 28, 48 hours incubation, read-out: MIC (B)
[3] = 48 h, Table 29, 48 hours incubation, read-out: MIC (B)
[4] = 48 h, Table 31, 48 hours incubation, read-out: MIC (B)
[5] = 48 h, Table 15B, incubation 48 hours, read-out: MIC (B)

Compound `CCCCCCC=CCC(=O)O` [3-Decenoic acid, 3-decenoic acid] has an MIC (Fusarium oxysporum; 24 h, Table 3, 24 hour incubation, read-out: MIC(B)) of 73.4 mg/L, an MIC (Fusarium oxysporum; 24 h, Table 4, 24 hour incubation, read-out: MIC (B)) of 73.4 mg/L and an MIC (Fusarium oxysporum; [1]) of 312 mg/L. It also gave an MIC (Fusarium oxysporum; [2]) of 78.1 mg/L, an MIC (Fusarium oxysporum; [3]) of 156 mg/L and an MIC (Fusarium oxysporum; [4]) of 78.1 mg/L. For the same compound, the MIC (Botrytis cinerea; Table 43) was 78.1 mg/L, the MIC (Botrytis cinerea; Table 44) was 78.1 mg/L and the MIC (Botrytis cinerea; Table 45) was 78.1 mg/L. The MIC (Botrytis cinerea; Table 47) was 78.1 mg/L, the MIC (Botrytis cinerea; Table 49) was 78.1 mg/L and the MIC (Botrytis cinerea; Table 50) was 78.1 mg/L. It also gave an MIC (Botrytis cinerea; Table 53) of 39.1 mg/L, an MIC (Botrytis cinerea; Table 54) of 39.1 mg/L and an MIC (Botrytis cinerea; Table 56) of 78.1 mg/L. The MIC (Botrytis cinerea; Table 58) was 156 mg/L, the MIC (Sclerotinia sclerotiorum; 7 days incubation) was 156 mg/L and the MIC (Sclerotinia sclerotiorum; Table 33, 7 days incubation) was 39.1 mg/L. It also gave an MIC (Sclerotinia sclerotiorum; Table 35, 7 days incubation) of 39.1 mg/L, an MIC (Sclerotinia sclerotiorum; Table 38, 7 days incubation) of 39.1 mg/L and an MIC (Sclerotinia sclerotiorum; Table 40, 7 days incubation) of 78.1 mg/L. The MIC (Sclerotinia sclerotiorum; Table 41, 7 days incubation) was 78.1 mg/L and the MIC (Alternaria solani; Table 60) was 78.1 mg/L.

`C=CCCCC(=O)O` [5-Hexenoic acid] was tested, and the MIC (Fusarium oxysporum; [1]) was 312 mg/L, the MIC (Botrytis cinerea; Table 43) was 156 mg/L and the MIC (Botrytis cinerea; Table 44) was 78.1 mg/L. For the same compound, the MIC (Botrytis cinerea; Table 45) was 312 mg/L, the MIC (Botrytis cinerea; Table 50) was 156 mg/L and the MIC (Botrytis cinerea; Table 54) was 312 mg/L. The MIC (Sclerotinia sclerotiorum; Table 33, 7 days incubation) was 156 mg/L, the MIC (Sclerotinia sclerotiorum; Table 35, 7 days incubation) was 156 mg/L and the MIC (Alternaria solani; Table 60) was 312 mg/L.

With `CCCC(O)CC(=O)O` (stereo not shown) [3-Hydroxyhexanoic acid, 3-hydroxyhexanoic acid] the MIC (Fusarium oxysporum; [5]) was 2500 mg/L, the MIC (Botrytis cinerea; Table 51) was 2500 mg/L and the MIC (Botrytis cinerea; Table 56) was 5000 mg/L. For the same compound, the MIC (Botrytis cinerea; Table 59) was 2500 mg/L, the MIC (Sclerotinia sclerotiorum; Table 16, incubation 7 days) was 5000 mg/L and the MIC (Sclerotinia sclerotiorum; Table 20B, incubation 7 days) was 2500 mg/L. The MIC (Alternaria solani) was 2500 mg/L.

With `CCCC=CCC(=O)O` [3-Heptenoic acid] the MIC (Fusarium oxysporum; [1]) was 156 mg/L, the MIC (Fusarium oxysporum; [2]) was 156 mg/L and the MIC (Fusarium oxysporum; [3]) was 156 mg/L. For the same compound, the MIC (Fusarium oxysporum; 48 h, Table 30, 48 hours incubation, read-out: MIC (B)) was 156 mg/L, the MIC (Fusarium oxysporum; [4]) was 156 mg/L and the MIC (Botrytis cinerea; Table 43) was 78.1 mg/L. For the same compound, the MIC (Botrytis cinerea; Table 44) was 78.1 mg/L, the MIC (Botrytis cinerea; Table 47) was 78.1 mg/L and the MIC (Botrytis cinerea; Table 49) was 78.1 mg/L. The MIC (Sclerotinia sclerotiorum; 7 days incubation) was 156 mg/L, the MIC (Sclerotinia sclerotiorum; Table 33, 7 days incubation) was 78.1 mg/L and the MIC (Sclerotinia sclerotiorum; Table 35, 7 days incubation) was 78.1 mg/L. It also gave an MIC (Sclerotinia sclerotiorum; Table 39, 7 days incubation) of 78.1 mg/L, an MIC (Sclerotinia sclerotiorum; Table 41, 7 days incubation) of 78.1 mg/L and an MIC (Alternaria solani; Table 60) of 312 mg/L.

For `CCCCCCCCC(=O)O` [Nonanoic acid, nonanoic acid], the MIC (Fusarium oxysporum; 48 h, Table 12, incubation 48 hours, read-out: MIC (B)) was 312 mg/L, the MIC (Botrytis cinerea; Table 24) was 156 mg/L and the MIC (Sclerotinia sclerotiorum; 7 days incubation) was 39.1 mg/L. For the same compound, the MIC (Sclerotinia sclerotiorum; Table 16, incubation 7 days) was 19.5 mg/L, the MIC (Sclerotinia sclerotiorum; Table 17, incubation 7 days) was 78.1 mg/L and the MIC (Sclerotinia sclerotiorum; Table 19, incubation 7 days) was 78.1 mg/L. The MIC (Sclerotinia sclerotiorum; Table 20A, incubation 7 days) was 39.1 mg/L and the MIC (Alternaria solani; Table 60) was 156 mg/L.

`CC(O)CC(=O)O` (stereo not shown) [3-Hydroxybutyric acid, 3-hydroxybutyric acid] was tested, and the MIC (Fusarium oxysporum; 48 h, Table 10, incubation 48 hours, read-out: MIC (B)) was 10000 mg/L, the MIC (Fusarium oxysporum; [5]) was 10000 mg/L and the MIC (Botrytis cinerea; Table 51) was 10000 mg/L. The MIC (Botrytis cinerea; Table 56) was 10000 mg/L, the MIC (Botrytis cinerea; Table 59) was 5000 mg/L and the MIC (Sclerotinia sclerotiorum; Table 16, incubation 7 days) was 10000 mg/L. For the same compound, the MIC (Sclerotinia sclerotiorum; Table 20B, incubation 7 days) was 5000 mg/L and the MIC (Alternaria solani) was 5000 mg/L.
